Measurements: article PMC5215716, “A Target-Based Whole Cell Screen Approach To Identify Potential Inhibitors of Mycobacterium tuberculosis Signal Peptidase” (ACS Infectious Diseases, 2016)
≈ marks a conversion by molar mass, not a printed value.

Columns and labels:
[1] = test system: M. tuberculosis strain SPAM13C (LepB-UE); assay: microbe, parasite or virus in culture; format: cell-based, Mycobacterium tuberculosis; details: for MIC: Mycobacterium tuberculosis, 120 h, read-out: LepB-UE MIC; for Change in potency against LepB-UE compared to compound 1: decrease in potency relative to compound 1
[2] = test system: wild-type (wt) M. tuberculosis strain; assay: microbe, parasite or virus in culture; format: cell-based, Mycobacterium tuberculosis; details: Mycobacterium tuberculosis, 120 h, […]; OD590 after 5 days at 37 °C; average ± SD of at least two experiments, b = single value; read-out: WT MIC
in vitro = format: cell-based, African green monkey; details: African green monkey
Method: (§1) Cytotoxicity against African green monkey adult kidney cell (Vero cells) was determined as previously described using CellTiter-Glo reagent.[44] The concentration causing 50% growth inhibition (IC50) was calculated by fitting the inhibition curves using the Levenberg–Marquardt algorithm.

Vero cells = assay: in vitro; format: cell-based, African green monkey; details: relative to compound 16
Method: as §1

LepB = target: T1, LepB (Mycobacterium tuberculosis, UniProt P9WKA1); assay: LepB membrane assay (fluorogenic signal peptide cleavage by cell membrane fraction); format: biochemical; details: M. tuberculosis H37Rv cell membrane fraction, 2 μM peptide substrate, 4 h at 37 °C
T1 construct: we used purified membrane fractions to develop an in vitro assay for signal peptide cleavage; host or cells: γ-irradiated whole M. tuberculosis H37Rv; Triton X-114 membrane fraction
T1 sequence (P9WKA1 1-294): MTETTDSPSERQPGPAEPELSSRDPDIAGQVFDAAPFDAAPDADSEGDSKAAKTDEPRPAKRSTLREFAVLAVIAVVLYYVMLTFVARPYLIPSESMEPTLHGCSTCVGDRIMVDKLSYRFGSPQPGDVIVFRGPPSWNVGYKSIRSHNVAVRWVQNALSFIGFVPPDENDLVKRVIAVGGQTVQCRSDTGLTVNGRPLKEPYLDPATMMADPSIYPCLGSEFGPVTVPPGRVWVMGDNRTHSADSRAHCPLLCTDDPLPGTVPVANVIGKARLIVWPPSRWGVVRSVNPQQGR

[3] = M. tuberculosis strain SPAM13C, OD590 after 5 days at 37 °C, average ± SD of at least two experiments, b = single value

| SMILES | MIC [1, 3] [µM] | MIC [2] [µM] | CC50 (in vitro) [µM] | Decrease in selectivity compared to 16 (Vero cells) [fold] | IC50 (LepB) [µM] | Change in potency against LepB-UE compared to compound 1 [1] | LepB-UE MIC [1, 3] [µM] |
| --- | --- | --- | --- | --- | --- | --- | --- |
| N=C(N/N=C/c1cccc([N+](=O)[O-])c1)c1ccccn1 [Compound 34] | 106 (≈ 28.5 µg/mL) | > 200 | > 100 | 15 |  |  |  |
| CC1=NN(c2nc(C)cc(C)n2)C(=O)C1C (stereo not drawn) [Compound 46] | 90 ± 28 (≈ 19.6 µg/mL) | > 200 | > 100 |  | > 200 |  |  |
| Cc1cc(C)nc(-n2nc(C)c(Cc3ccccc3C)c2O)n1 [Compound 47] | 61 ± 7 (≈ 18.8 µg/mL) | > 200 | > 100 |  | > 200 |  |  |
| COc1ccc(Nc2nc(NCc3ccco3)nc(N/N=C/c3ccccc3O)n2)cc1 [Compound 10] | 5.4 ± 2.6 (≈ 2.33 µg/mL) | > 200 | 4.3 |  | > 200 |  |  |
| Cc1cc(C)nc(NN=C(c2ccccc2)c2ccccc2)n1 [Compound 27] | 2.2 ± 0.7 (≈ 0.665 µg/mL) | 17 ± 8 (≈ 5.14 µg/mL) | 0.1 |  | > 200 | little impact on antitubercular activity compared to compound 1 |  |
| C/C(=N\Nc1nnc2c(n1)[nH]c1ccc(C)cc12)c1ccccn1 [Compound 28] | 4.8 ± 2.4 (≈ 1.52 µg/mL) | > 200 | 1.2 |  | 87 | activity was comparable to that of 1 |  |
| C/C(=N\Nc1nc(C)cc(C)n1)c1ccccc1 [Compound 22] |  | > 200 | > 100 |  | > 200 | at least 10 fold |  |
| O=[N+]([O-])c1ccc(O)c(/C=N/Nc2ccccn2)c1 [Compound 3] | 4.7 (≈ 1.21 µg/mL) | 11 (≈ 2.84 µg/mL) | 2.9 |  | 12 |  |  |
| Oc1ccccc1/C=N/Nc1nc(-c2ccccc2)cs1 [Compound 2] | 9.3 ± 3.2 (≈ 2.75 µg/mL) | 43 ± 26 (≈ 12.7 µg/mL) | 13 |  | > 200 |  |  |
| CCOC(=O)CN1C(=O)/C(=N\NC(=O)c2ccccn2)c2ccccc21 [Compound 14] | 3.5 to 15 (≈ 1.23 to 5.29 µg/mL) | > 200 | 32 |  | > 200 |  | 4.9 ± 1.9 |
| Cc1cc(C)nc(-n2nc(C)c(Oc3ccccc3O)c2C)n1 [Compound 44] | 95 ± 7 (≈ 29.5 µg/mL) | > 200 | > 100 |  | > 200 |  |  |
| COc1ccc([N+](=O)[O-])cc1/C=N/NC(=N)c1ccccn1 [Compound 33] | > 200 | > 200 | > 100 | 15 |  |  |  |
